Earlier results in patent US11903955B2, “Methods of treating heart failure with reduced ejection fraction” (ASTRAZENECA AB, priority 2019, dated 2024).

Columns and labels:
[1] = test system: patients with systolic heart failure; details: after 12 months of treatment, SHIFT; cited from earlier work
patients with HFrEF = details: after 8 months of treatment, PARADIGM-HF; cited from earlier work

Compound | mean improvement in KCCQ-CSS [1] [point] | mean improvement in KCCQ-OSS [1] [point] | improvement in KCCQ-CS over enalapril (patients with HFrEF) [point] | improvement in KCCQ-OS over enalapril (patients with HFrEF) [point]
COc1cc2c(cc1OC)CC(=O)N(CCCN(C)C[C@H]1Cc3cc(OC)c(OC)cc31)CC2 [ivabradine] | 1.8 | 2.4 |  | 
sacubitril-valsartan |  |  | 0.9 | 1.3
